Assay [1] has as its system M. abscessus (ATCC Smooth strain). The experiment in a line: M. abscessus (ATCC Smooth strain) resazurin growth inhibition assay. It is filed as cell-based, Mycobacterium abscessus. Particulars: for IC50 / IC90: Mycobacteroides abscessus; for activity against M. abscessus (in words): summary of table results. In general terms: The colour change of resazurin is a common sign of viable cells or microbes.

The test system of assay [2] is M. tuberculosis (H37RV strain). As to the kind of experiment: M. tuberculosis (H37RV strain) resazurin growth inhibition assay. It is filed as cell-based, Mycobacterium tuberculosis. Particulars: for IC50 / IC90: Mycobacterium tuberculosis; for activity against M. tuberculosis (in words): summary of table results.
Setting [3] is: M. abscessus ATCC Smooth, 96 well plate, 37° C. 4 days, resazurin, read after 1 day, read-out: IC50.
Where [4] appears, read: M. abscessus ATCC Smooth, 96 well plate, 37° C. 4 days, resazurin, read after 1 day, read-out: IC90.
The mark [5] stands for this setting: M. tuberculosis H37RV, 96 well plate, 37° C. 4 days, resazurin, read 3 days later, read-out: IC50.
The mark [6] stands for this setting: M. tuberculosis H37RV, 96 well plate, 37° C. 4 days, resazurin, read 3 days later, read-out: IC90.

Where two headings read alike, the source gives them in different places.

By IC50 is commonly meant the midpoint of a concentration-inhibition curve. Usually IC90 stands for the concentration needed for an effect of 90%.

For `O=C(Nc1ccc(Br)cc1)c1cc(Br)cc(Br)c1O` [Tribromsalan, 3,5,4′-tribromosalicylanilide], in assay [1], the IC50 was 99.8 µM, the IC90 worked out at 147 µM and the “activity against M. abscessus (in words)” value is recorded as “significant activity”. In assay [2] (H37RV), this compound showed an IC50 of 67.2 µM and an IC90 of 76.9 µM. In addition, the “activity against M. tuberculosis (in words)” value in assay [2] is on record as “significant activity”.
As for `O=C(Nc1ccc([N+](=O)[O-])cc1Cl)c1cc(Cl)ccc1O` [Niclosamide, niclosamide], the values for the IC50 in assay [1] (setting [3]) and in assay [2] (setting [5]) were 32.2 µM and 1.92 µM, respectively. The IC90 in assay [1] (setting [4]) was found to be 59.1 µM; in assay [2] (setting [6]) it was 2.95 µM. Also, the “activity against M. abscessus (in words)” value in assay [1] is on record as “significant activity”. In assay [2] (comparison with control kanamycin), the “activity against M. tuberculosis compared to kanamycin (in words)” value is given as “superior overall to kanamycin”. In assay [2], the “activity against M. tuberculosis (in words)” value is “significant activity”.
Regarding `NC[C@H]1O[C@H](O[C@H]2[C@H](O)[C@@H](O[C@H]3O[C@H](CO)[C@@H](O)[C@H](N)[C@H]3O)[C@H](N)C[C@@H]2N)[C@H](O)[C@@H](O)[C@@H]1O` [Kanamycin], the 50% inhibitory concentration (IC50) turned out to be 12.1 µM in assay [1] (setting [3]) and 1.06 µM in assay [2] (setting [5]). Further, the figures for the IC90 in assay [1] (setting [4]) and in assay [2] (setting [6]) were 16.1 µM and 4.22 µM, respectively.
As for `NCC[C@H](O)C(=O)N[C@@H]1C[C@H](N)[C@@H](O[C@H]2O[C@H](CN)[C@@H](O)[C@H](O)[C@H]2O)[C@H](O)[C@H]1O[C@H]1O[C@H](CO)[C@@H](O)[C@H](N)[C@H]1O` [Amikacin], in assay [1] (setting [3]), the IC50 came out at 4.78 µM. For the same compound, in assay [1] (setting [4]), the IC90 was found to be 7.15 µM.

The values above are taken from patent US20260091043A1, “COMPOSITIONS AND METHODS FOR TREATING MYCOBACTERIUM INFECTIONS” (DATA2DISCOVERY, INC., priority 2022, published 2026).
